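Assay format: 96-well plates, 48-hour exposure. TGI is the concentration that stops growth completely.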 Some results are limits rather than exact numbers.

Data on 16 compounds can be found in PubChem BioAssay (NCI).

Test systems include M14 melanoma; A549 NSCLC; DMS 114 small cell lung; XF 498 CNS; SW-620 colon; OVCAR-5 ovarian; MALME-3M melanoma; SK-MEL-2 melanoma; HOP-18 NSCLC; MDA-MB-435; HS 578T breast.
What all share (experiment): growth of human tumour cells (NCI), 48 h

In the case of `O=C(OCCOCCOC(=O)c1c[nH]cc1-c1ccccc1)c1c[nH]cc1-c1ccccc1`, the TGI in the assay with M14 melanoma worked out at 28.2 µM; in the assay with A549 NSCLC it was 66.4 µM; in the assay on DMS 114 small cell lung, 32.5 µM; in the assay with XF 498 CNS it was 34.4 µM; in the assay on SW-620 colon, 76.5 µM; with OVCAR-5 ovarian, 62.2 µM. In addition, the TGI in the assay on MALME-3M melanoma came to 55.2 µM.

For the compound `CCOc1ccc(NC(=O)C2=C(C)NC(C)=C(C(=O)Nc3ccc(OCC)cc3)C2c2ccc([N+](=O)[O-])cc2)cc1`, the TGI is above 100 µM in the assay with M14 melanoma; above 100 µM in the assay on A549 NSCLC; 45.7 µM in the assay on SK-MEL-2 melanoma; above 100 µM in the assay with DMS 114 small cell lung; 70.7 µM in the assay with XF 498 CNS; above 100 µM with SW-620 colon. Moreover, the TGI in the assay with OVCAR-5 ovarian is 86.9 µM; with MALME-3M melanoma, above 100 µM.

For the compound `C[Si](C)(C)/C(Br)=C\CCN1C(=O)CCC1O` (stereo not drawn), the TGI in the assay with M14 melanoma, in the assay with HOP-18 NSCLC, in the assay on A549 NSCLC, in the assay with SK-MEL-2 melanoma, in the assay on DMS 114 small cell lung and with XF 498 CNS was above 100 µM in each case. Moreover, the TGI in the assay on SW-620 colon, with OVCAR-5 ovarian and in the assay on MALME-3M melanoma was above 100 µM each time.

Take `Cn1cc(C(=O)C2CCCCC2)ccc1=O`: the TGI with M14 melanoma, with A549 NSCLC, with SK-MEL-2 melanoma, in the assay with DMS 114 small cell lung, in the assay on XF 498 CNS and with SW-620 colon was above 100 µM throughout. Moreover, the TGI in the assay with OVCAR-5 ovarian and in the assay on MALME-3M melanoma was above 100 µM throughout.

Consider `CCCCOC(=O)N[C@H]1CCc2cc(OC)c(OC)c(OC)c2-c2ccc(SC)c(=O)cc21`, for which the TGI in the assay on MDA-MB-435 is below 0.01 µM; with M14 melanoma, 15.6 µM; in the assay on HOP-18 NSCLC it was above 100 µM; in the assay with A549 NSCLC, 98.9 µM; in the assay on SK-MEL-2 melanoma it was 2.02 µM; in the assay with DMS 114 small cell lung, below 0.01 µM. Further, the TGI in the assay with XF 498 CNS amounted to 2.55 µM; in the assay with SW-620 colon it was 79 µM; in the assay on OVCAR-5 ovarian, 91.8 µM; with MALME-3M melanoma it was 46.6 µM.

On to `O=C(CC1C(=O)Nc2ccccc2S1=O)Nc1cccc(Cl)c1` (stereo not drawn), for which the TGI in the assay on MDA-MB-435 is above 100 µM; in the assay with M14 melanoma, above 65 µM; with HOP-18 NSCLC, above 100 µM; in the assay with HS 578T breast, above 100 µM; with A549 NSCLC it was above 100 µM; in the assay on SK-MEL-2 melanoma, above 100 µM. Besides, the TGI in the assay on DMS 114 small cell lung is above 100 µM; with XF 498 CNS, above 100 µM; in the assay with SW-620 colon, above 100 µM; in the assay on OVCAR-5 ovarian it was above 100 µM; with MALME-3M melanoma, above 84.4 µM.

Turning to `C[C@H](NC(=O)OC1C2C=CC(O)C1CC2)c1ccccc1` (stereo partly drawn), the TGI with M14 melanoma, with HOP-18 NSCLC, in the assay on A549 NSCLC, in the assay on SK-MEL-2 melanoma, in the assay on DMS 114 small cell lung and in the assay with XF 498 CNS was above 100 µM each time. Moreover, the TGI in the assay on OVCAR-5 ovarian and in the assay with MALME-3M melanoma was above 100 µM each time.

With `CC(=O)OC1COC(N2C(=O)C(=O)c3cc(Br)c([N+](=O)[O-])cc32)C(OC(C)=O)C1OC(C)=O` (stereo not drawn), the TGI is above 100 µM in the assay on M14 melanoma; above 100 µM with HOP-18 NSCLC; above 100 µM in the assay on A549 NSCLC; above 100 µM with SK-MEL-2 melanoma; 65.8 µM in the assay on DMS 114 small cell lung; above 100 µM in the assay with XF 498 CNS. The TGI in the assay on SW-620 colon, in the assay with OVCAR-5 ovarian and with MALME-3M melanoma was above 100 µM in each case.

With `CCN(CCCl)CCNc1c2ccccc2nc2ccc(OC)cc12`, the TGI came out at 2.45 µM with M14 melanoma; 8.02 µM in the assay on HOP-18 NSCLC; 7.11 µM with A549 NSCLC; 2.52 µM with SK-MEL-2 melanoma; 2.35 µM in the assay on DMS 114 small cell lung; 2.43 µM in the assay on XF 498 CNS. Moreover, the TGI in the assay with SW-620 colon turned out to be 2.04 µM; with OVCAR-5 ovarian, 4.04 µM; in the assay on MALME-3M melanoma it was 2.31 µM.

As for `CCCCCCCCCCCCC(Br)C(=O)SCCNC(=O)CCNC(=O)[C@@H](O)C(C)(C)COP(=O)(O)OP(=O)(O)OCC1OC(n2cnc3c(N)ncnc32)C(O)C1OP(=O)(O)O` (stereo partly drawn), the TGI in the assay with M14 melanoma, with HOP-18 NSCLC, in the assay with A549 NSCLC, in the assay with SK-MEL-2 melanoma, in the assay with DMS 114 small cell lung and in the assay on XF 498 CNS was above 56.5 µM in each case. Also, the TGI in the assay with SW-620 colon, in the assay on OVCAR-5 ovarian and with MALME-3M melanoma was above 56.5 µM in each case.

In the case of `C/C=C/C1(NS(=O)(=O)c2ccc(C)cc2)CCC(C(C)(C)C)CC1` (stereo not drawn), the TGI in the assay on M14 melanoma was 35.1 µM; in the assay with HOP-18 NSCLC, above 100 µM; with A549 NSCLC it was above 100 µM; in the assay on SK-MEL-2 melanoma, 34.8 µM; in the assay on DMS 114 small cell lung, 62.3 µM; in the assay on XF 498 CNS, 39.3 µM. Further, the TGI with SW-620 colon was determined as 67.3 µM; with OVCAR-5 ovarian it was 39.5 µM; in the assay with MALME-3M melanoma, 49.4 µM.

With `CC(C)(C)c1ccccc1NS(=O)(=O)c1ccccc1`, the TGI in the assay on M14 melanoma, in the assay with A549 NSCLC, in the assay on SK-MEL-2 melanoma, in the assay with DMS 114 small cell lung, in the assay with XF 498 CNS and in the assay on SW-620 colon was above 100 µM throughout. The TGI with OVCAR-5 ovarian and in the assay on MALME-3M melanoma was above 100 µM each time.

On to `CC(C)(C)c1cc(C(O)(C(F)(F)F)C(F)(F)F)c2c(c1)C(C(F)(F)F)(C(F)(F)F)OC(c1ccccc1)(C(C)(C)C)N2` (stereo not drawn), for which the TGI is 12.3 µM in the assay on M14 melanoma; 6.81 µM in the assay with HOP-18 NSCLC; above 100 µM in the assay on A549 NSCLC; 19.7 µM in the assay on SK-MEL-2 melanoma; 9.8 µM with DMS 114 small cell lung; 6.24 µM in the assay on XF 498 CNS. Also, the TGI in the assay on SW-620 colon was found to be 16.7 µM; with OVCAR-5 ovarian, 50.9 µM; in the assay with MALME-3M melanoma it was 27.6 µM.

Consider `O=C(O)/C(Cl)=C(/Cl)C(=O)Nc1cccc(Cl)c1`, for which the TGI was 46.5 µM with MDA-MB-435; 43.2 µM with M14 melanoma; 43.3 µM in the assay on HOP-18 NSCLC; 71.6 µM in the assay on HS 578T breast; above 100 µM with A549 NSCLC; 49.8 µM in the assay with SK-MEL-2 melanoma. The TGI in the assay with DMS 114 small cell lung came out at 32.2 µM; in the assay with XF 498 CNS, 34.3 µM; in the assay on SW-620 colon, 32.1 µM; in the assay with OVCAR-5 ovarian it was 39.7 µM; in the assay on MALME-3M melanoma, 31.7 µM.

As for `Cc1cc(Cl)ccc1N1C(=O)C(=O)C(c2nc3ccccc3s2)C(=O)C1=O`, the TGI in the assay with M14 melanoma, with HOP-18 NSCLC, in the assay on A549 NSCLC, in the assay with SK-MEL-2 melanoma, with DMS 114 small cell lung and with XF 498 CNS was above 100 µM in each case. For the same compound, the TGI in the assay on SW-620 colon, in the assay on OVCAR-5 ovarian and in the assay with MALME-3M melanoma was above 100 µM each time.

Turning to `Cc1cc2c(=O)cc(-c3ccc(Cl)cc3)oc2c(C(=O)O)c1C`, the TGI in the assay on M14 melanoma, with HOP-18 NSCLC, in the assay on A549 NSCLC, in the assay on SK-MEL-2 melanoma, with DMS 114 small cell lung and with XF 498 CNS was above 100 µM each time. Besides, the TGI in the assay with SW-620 colon, with OVCAR-5 ovarian and in the assay with MALME-3M melanoma was above 100 µM each time.
